A short description of assay [1]: Binding affinity to D-Mannose assessed as molar ratio of sugar to compound in aggregate at 2 umol at pH 6 incubated at 60 degC for 15 mins, room temperature for 1 hr, and 4 degC for 1 hr by co-precipitation method in presence of 100 umol CaCl2.
Assay [2] is described as follows: Binding affinity to D-Arabinose assessed as molar ratio of sugar to compound in aggregate at 2 umol at pH 6 by 1H NMR analysis in presence of 20 umol CaCl2.
A short description of assay [3]: Binding affinity to L-[…] assessed as molar ratio of sugar to compound in aggregate at 2 umol at pH 6 by 1H NMR analysis in presence of 20 umol CaCl2.
Assay [4] in a line: Binding affinity to beta-L-Galactose-OMe assessed as molar ratio of sugar to compound in aggregate at 2 umol incubated at 60 degC for 15 mins, room temperature for 1 hr, and 4 degC for 1 hr by co-precipitation method in presence of 100 umol CaCl2.
Assay [5] can be described thus: Binding affinity to alpha-L-Galactose-OMe assessed as molar ratio of sugar to compound in aggregate at 2 umol at pH 6 by 1H NMR analysis in presence of 20 umol CaCl2.
Assay [6] in a line: Binding affinity to alpha-L-[…]-OMe assessed as molar ratio of sugar to compound in aggregate at 2 umol at pH 6 by 1H NMR analysis in presence of 20 umol CaCl2.
The nature of assay [7]: Binding affinity to D-Mannose assessed as molar ratio of sugar to compound in aggregate at 2 umol at pH 6 by 1H NMR analysis in presence of 20 umol CaCl2.
The nature of assay [8]: Binding affinity to alpha-L-Galactose-OMe assessed as molar ratio of sugar to compound in aggregate at 2 umol incubated at 60 degC for 15 mins, room temperature for 1 hr, and 4 degC for 1 hr by co-precipitation method in presence of 100 umol CaCl2.
The nature of assay [9]: Binding affinity to beta-L-[…]-OMe assessed as molar ratio of sugar to compound in aggregate at 2 umol incubated at 60 degC for 15 mins, room temperature for 1 hr, and 4 degC for 1 hr by co-precipitation method in presence of 100 umol CaCl2.
Assay [10] in a line: Binding affinity to beta-D-Mannose-OMe assessed as molar ratio of sugar to compound in aggregate at 2 umol at pH 6 by 1H NMR analysis in presence of 20 umol CaCl2.
Assay [11] can be described thus: Binding affinity to D-Glucose assessed as molar ratio of sugar to compound in aggregate at 2 umol at pH 6 by 1H NMR analysis in presence of 20 umol CaCl2.
Assay [12] can be described thus: Binding affinity to L-Galactose assessed as molar ratio of sugar to compound in aggregate at 2 umol incubated at 60 degC for 15 mins, room temperature for 1 hr, and 4 degC for 1 hr by co-precipitation method in presence of 100 umol CaCl2.
Assay [13] is described as follows: Binding affinity to L-[…] assessed as molar ratio of sugar to compound in aggregate at 2 umol incubated at 60 degC for 15 mins, room temperature for 1 hr, and 4 degC for 1 hr by co-precipitation method in presence of 100 umol CaCl2.
Assay [14] in a line: Binding affinity to alpha-L-[…]-OMe assessed as molar ratio of sugar to compound in aggregate at 2 umol incubated at 60 degC for 15 mins, room temperature for 1 hr, and 4 degC for 1 hr by co-precipitation method in presence of 100 umol CaCl2.
The nature of assay [15]: Binding affinity to D-Glucose assessed as molar ratio of sugar to compound in aggregate at pH 4.5 by co-precipitation method in presence of Ca2+.
Assay [16] in a line: Binding affinity to beta-L-Galactose-OMe assessed as molar ratio of sugar to compound in aggregate at 2 umol at pH 6 by 1H NMR analysis in presence of 20 umol CaCl2.
The nature of assay [17]: Binding affinity to Alpha-D-Mannose-OMe assessed as molar ratio of sugar to compound in aggregate at pH 4.5 by co-precipitation method in presence of Ca2+.
Assay [18] in a line: Binding affinity to L-Galactose assessed as molar ratio of sugar to compound in aggregate at 2 umol at pH 6 by 1H NMR analysis in presence of 20 umol CaCl2.
Assay [19] in a line: Binding affinity to alpha-D-Mannose-OMe assessed as molar ratio of sugar to compound in aggregate at 2 umol at pH 6 by 1H NMR analysis in presence of 20 umol CaCl2.
Assay [20] can be described thus: Binding affinity to beta-L-[…]-OMe assessed as molar ratio of sugar to compound in aggregate at 2 umol at pH 6 by 1H NMR analysis in presence of 20 umol CaCl2.
A short description of assay [21]: Binding affinity to alpha-D-Mannose-OMe assessed as molar ratio of sugar to compound in aggregate at 2 umol incubated at 60 degC for 15 mins, room temperature for 1 hr, and 4 degC for 1 hr by co-precipitation method in presence of 100 umol CaCl2.
The nature of assay [22]: Binding affinity to beta-D-Mannose-OMe assessed as molar ratio of sugar to compound in aggregate at 2 umol incubated at 60 degC for 15 mins, room temperature for 1 hr, and 4 degC for 1 hr by co-precipitation method in presence of 100 umol CaCl2.
Assay [23] is described as follows: Binding affinity to alpha-D-Glucose-OMe assessed as molar ratio of sugar to compound in aggregate at 2 umol at pH 6 by 1H NMR analysis in presence of 20 umol CaCl2.

Consider `CN[C@@H]1[C@H](O[C@@H]2OC[C@@H](O)[C@H](O)[C@H]2O)[C@@H](O)[C@H](O[C@H]2c3cc(C)c(C(=O)N[C@H](C)C(=O)O)c(O)c3-c3c(cc4c(c3O)C(=O)c3cc(OC)cc(O)c3C4=O)[C@@H]2O)O[C@@H]1C`, for which the Activity is 1.08 molar ratio in assay [1]; 1.14 molar ratio in assay [2]; less than 0.1 molar ratio in [3]; less than 0.1 molar ratio in [4]; 0.32 molar ratio in [5]; 0.28 molar ratio in [6]. Moreover, the Activity in [7] was 1.07 molar ratio; in assay [8], less than 0.1 molar ratio; in [9], less than 0.1 molar ratio; in [10], 1.15 molar ratio; in [11] it was less than 0.1 molar ratio; in assay [12], less than 0.1 molar ratio. Moreover, the Activity is less than 0.1 molar ratio in assay [13]; less than 0.1 molar ratio in assay [14]; 0.57 molar ratio in [15]; 0.6 molar ratio in [16]; 1.08 molar ratio in [17]; less than 0.1 molar ratio in assay [18]. In addition, the Activity in assay [19] was 1.13 molar ratio; in [20] it was 0.52 molar ratio; in [21], 1.11 molar ratio; in [22], 1.08 molar ratio; in [23], less than 0.1 molar ratio.

Values taken from ChEMBL document CHEMBL3596193, “Pradimicin A, a D-mannose-binding antibiotic, binds pyranosides of L-fucose and L-galactose in a calcium-sensitive manner” (Bioorg Med Chem Lett, 2015).
